Laboratory results reported in patent publication US20210238138A1, “Method for improving nucleation of crystals from solution” (Université Libre de Bruxelles, priority 2018, published 2021).

Test: Cooling crystallisation of Brivaracetam/IPAc in capillary tubing
Assay type: physicochemical
Details: 7 m tubing; for Appearance of crystals: 30 mL/min, 1 restriction, bath 20° C., initial 45° C.
Protocol: For example, following tests were made on Brivaracetam/IPAc (IsoPropylAcetate) at different concentrations. Induction time (appearance of crystals) is shown in table 1 for different increasing concentrations at a crystallization temperature of 20° C. after flowing through the tube at 30 mL/min in a 7 m long tubing.
(so same overall supersaturation). The variation in crystal size is shown without and with a 5 cm long 500 μm restriction. “Needles and rods” indicate appearance of concurring crystallizations of the two possible crystal types of Brivaracetam. Therefore the method also influences selectivity for one single crystal form. In the case of Brivaracetam, rods are preferred.
The advantage of using restriction(s) has already been indicated in previous tables. A series of tests was also performed using identical conditions and only changing the number of identical restrictions. In table 3, the tests were performed with restrictions of 1 mm in length and having an inner diameter of 500 μm. Crystal length decreases drastically when placing more restrictions in series in the tubing line.
Also different geometries of restriction were tested on Brivaracetam/IPAc mixtures: different lengths and different inner diameters.
The crystallization temperature is controlled by a water bath containing about 5 L of water, temperature is monitored at all times by a thermocouple. This water is cooled by a 1 m long cupper serpentine plunged into the bath with cooling liquid flowing from and to a cryothermostat, the water bath itself is agitated with a magnetic bar stirrer. The internal volume of a 7 m long tubing of […] is about 22 mL. As this volume is 220 times smaller than the volume of the present water it is assumed that the water temperature remains within a 0.5° C. or smaller margin of the set temperature value.

[1] = test 2: 600 mg/mL in IPAc, Tc 0° C., σ 11, Q 43 mL/min, no restriction
[2] = test 3: 600 mg/mL in IPAc, Tc 0° C., σ 11, Q 32 mL/min, no restriction
[3] = test 4: 600 mg/mL in IPAc, Tc 0° C., σ 11, Q 21 mL/min, no restriction
[4] = test 6: 600 mg/mL in IPAc, Tc 0° C., σ 11, Q 43 mL/min, restriction 5 cm long, 500 μm
[5] = test 7: 600 mg/mL in IPAc, Tc 0° C., σ 11, Q 32 mL/min, restriction 5 cm long, 500 μm
[6] = test 8: 600 mg/mL in IPAc, Tc 0° C., σ 11, Q 21 mL/min, restriction 5 cm long, 500 μm
[7] = test 9: 400 mg/mL in IPAc, Tc 10° C., σ 4.7, Q 30 mL/min, 0 restrictions
[8] = test 9 as listed in Table 4: 400 mg/mL in IPAc, Tc 10° C., σ 4.7, Q 30 mL/min, restriction none
[9] = test 10: 400 mg/mL in IPAc, Tc 10° C., σ 4.7, Q 30 mL/min, 1 restriction 1 mm long, 500 μm
[10] = test 11: 400 mg/mL in IPAc, Tc 10° C., σ 4.7, Q 30 mL/min, 1 restriction 1 mm long, 500 μm
[11] = test 12: 400 mg/mL in IPAc, Tc 10° C., σ 4.7, Q 30 mL/min, 2 restrictions 1 mm long, 500 μm
[12] = test 13: 400 mg/mL in IPAc, Tc 10° C., σ 4.7, Q 30 mL/min, 2 restrictions 1 mm long, 500 μm
[13] = test 14: 400 mg/mL in IPAc, Tc 10° C., σ 4.7, Q 30 mL/min, 3 restrictions 1 mm long, 500 μm
[14] = test 15: 400 mg/mL in IPAc, Tc 10° C., σ 4.7, Q 30 mL/min, 3 restrictions 1 mm long, 500 μm
[15] = test 16: 400 mg/mL in IPAc, Tc 10° C., σ 4.7, Q 30 mL/min, 4 restrictions 1 mm long, 500 μm
[16] = test 17: 400 mg/mL in IPAc, Tc 10° C., σ 4.7, Q 30 mL/min, one restriction length 5 cm, diameter 500 μm
[17] = test 18: 400 mg/mL in IPAc, Tc 10° C., σ 4.7, Q 30 mL/min, one restriction length 5 cm, diameter 750 μm
[18] = test 19: 400 mg/mL in IPAc, Tc 10° C., σ 4.7, Q 30 mL/min, one restriction length 20 cm, diameter 500 μm
[19] = test 20: 400 mg/mL in IPAc, Tc 10° C., σ 4.7, Q 30 mL/min, one restriction length 50 cm, diameter 500 μm
[20] = test 21: 400 mg/mL in IPAc, Tc 10° C., σ 4.7, Q 30 mL/min, one restriction length 100 cm, diameter 500 μm

**Q.** For CCC[C@@H]1CC(=O)N([C@@H](CC)C(N)=O)C1 [Brivaracetam], which Appearance of crystals (150 mg/mL in IPAc, supersaturation 0.09) is on record?
**A.** None

**Q.** What about the Appearance of crystals (200 mg/mL in IPAc, supersaturation 0.47) of the same compound?
**A.** None

**Q.** What about the Appearance of crystals (250 mg/mL in IPAc, supersaturation 0.83) of the same compound?
**A.** 20 h

**Q.** And the Appearance of crystals (300 mg/mL in IPAc, supersaturation 1.21)?
**A.** 2 h

**Q.** What about the Appearance of crystals (350 mg/mL in IPAc, supersaturation 1.57) of the same compound?
**A.** 0.5 h

**Q.** What about the Appearance of crystals (400 mg/mL in IPAc, supersaturation 1.94) of the same compound?
**A.** Immediate

**Q.** What about the Appearance of crystals (500 mg/mL in IPAc, supersaturation 2.68) of the same compound?
**A.** Immediate

**Q.** And the Appearance of crystals (600 mg/mL in IPAc, supersaturation 3.41)?
**A.** Immediate, white slurry

**Q.** And the Appearance of crystals (800 mg/mL in IPAc, supersaturation 4.88)?
**A.** Immediate, white slurry

**Q.** And the Appearance crystals (test 1: 600 mg/mL in IPAc, Tc 0° C., σ 11, Q 54 mL/min, no restriction)?
**A.** Needles

**Q.** And the Appearance crystals [1]?
**A.** Rods

**Q.** What about the Crystal length [1] of the same compound?
**A.** 1020 ± 196 μm

**Q.** And the “J (nucleation rate)” value [1]?
**A.** 2 100 mL^−1 · s^−1

**Q.** And the Appearance crystals [2]?
**A.** Rods

**Q.** And the Crystal length [2]?
**A.** 365 ± 106 μm

**Q.** And the “J (nucleation rate)” value [2]?
**A.** 43 000 mL^−1 · s^−1

**Q.** And the Appearance crystals [3]?
**A.** Rods

**Q.** And the Crystal length [3]?
**A.** 258 ± 76 μm

**Q.** And the “J (nucleation rate)” value [3]?
**A.** 121 000 mL^−1 · s^−1

**Q.** What about the Appearance crystals (test 5: 600 mg/mL in IPAc, Tc 0° C., σ 11, Q 54 mL/min, restriction 5 cm long, 500 μm) of the same compound?
**A.** Needles

**Q.** What about the Appearance crystals [4] of the same compound?
**A.** Rods

**Q.** And the Crystal length [4]?
**A.** 227 ± 64 μm

**Q.** What about the “J (nucleation rate)” value [4] of the same compound?
**A.** 181 000 mL^−1 · s^−1

**Q.** What about the Appearance crystals [5] of the same compound?
**A.** Rods

**Q.** And the Crystal length [5]?
**A.** 121 ± 33 μm

**Q.** What about the “J (nucleation rate)” value [5] of the same compound?
**A.** 1 200 000 mL^−1 · s^−1

**Q.** What about the Appearance crystals [6] of the same compound?
**A.** Rods

**Q.** What about the Crystal length [6] of the same compound?
**A.** 175 ± 100 μm

**Q.** What about the “J (nucleation rate)” value [6] of the same compound?
**A.** 400 000 mL^−1 · s^−1

**Q.** What about the Appearance crystals [7] of the same compound?
**A.** Rods

**Q.** What about the Crystal length [7] of the same compound?
**A.** 195 μm

**Q.** And the “J (nucleation rate)” value [7]?
**A.** 66 000 mL.^−1s^−1

**Q.** And the Appearance crystals [8]?
**A.** Rods

**Q.** What about the Crystal length [8] of the same compound?
**A.** 195 μm

**Q.** What about the “J (nucleation rate)” value [8] of the same compound?
**A.** 131 000 mL^−1 · s^−1

**Q.** What about the Appearance crystals [9] of the same compound?
**A.** Rods

**Q.** And the Crystal length [9]?
**A.** 62 μm

**Q.** And the “J (nucleation rate)” value [9]?
**A.** 3 085 000 mL.^−1s^−1

**Q.** What about the Appearance crystals [10] of the same compound?
**A.** Rods

**Q.** What about the Crystal length [10] of the same compound?
**A.** 62 μm

**Q.** What about the “J (nucleation rate)” value [10] of the same compound?
**A.** 1 609 000 mL.^−1s^−1

**Q.** And the Appearance crystals [11]?
**A.** Rods

**Q.** And the Crystal length [11]?
**A.** 46 μm

**Q.** And the “J (nucleation rate)” value [11]?
**A.** 8 500 000 mL.^−1s^−1

**Q.** And the Appearance crystals [12]?
**A.** Rods

**Q.** What about the Crystal length [12] of the same compound?
**A.** 43 μm

**Q.** What about the “J (nucleation rate)” value [12] of the same compound?
**A.** 7 300 000 mL.^−1s^−1

**Q.** What about the Appearance crystals [13] of the same compound?
**A.** Rods

**Q.** And the Crystal length [13]?
**A.** 37 μm

**Q.** And the “J (nucleation rate)” value [13]?
**A.** 12 000 000 mL.^−1s^−1

**Q.** And the Appearance crystals [14]?
**A.** Rods

**Q.** And the Crystal length [14]?
**A.** 40 μm

**Q.** What about the “J (nucleation rate)” value [14] of the same compound?
**A.** 11 500 000 mL.^−1s^−1

**Q.** What about the Appearance crystals [15] of the same compound?
**A.** Rods

**Q.** What about the Crystal length [15] of the same compound?
**A.** 35 μm

**Q.** What about the “J (nucleation rate)” value [15] of the same compound?
**A.** 9 700 000 mL.^−1s^−1

**Q.** What about the Appearance crystals [16] of the same compound?
**A.** Rods

**Q.** And the Crystal length [16]?
**A.** 143 μm

**Q.** What about the “J (nucleation rate)” value [16] of the same compound?
**A.** 310 000 mL^−1 · s^−1

**Q.** What about the Appearance crystals [17] of the same compound?
**A.** Rods

**Q.** What about the Crystal length [17] of the same compound?
**A.** 120 μm

**Q.** What about the “J (nucleation rate)” value [17] of the same compound?
**A.** 500 000 mL^−1 · s^−1

**Q.** What about the Appearance crystals [18] of the same compound?
**A.** Rods

**Q.** What about the Crystal length [18] of the same compound?
**A.** 95 μm

**Q.** What about the “J (nucleation rate)” value [18] of the same compound?
**A.** 642 000 mL^−1 · s^−1

**Q.** And the Appearance crystals [19]?
**A.** Rods

**Q.** What about the Crystal length [19] of the same compound?
**A.** 207 μm

**Q.** And the “J (nucleation rate)” value [19]?
**A.** 132 000 mL^−1 · s^−1

**Q.** And the Appearance crystals [20]?
**A.** Rods

**Q.** What about the Crystal length [20] of the same compound?
**A.** 211 μm

**Q.** What about the “J (nucleation rate)” value [20] of the same compound?
**A.** 107 000 mL^−1 · s^−1
